Experimental data taken from patent US7138361B2, “Herbicidal heterocycles” (E. I. du Pont de Nemours and Company, priority 2000, dated 2006).

How the values were obtained:
Assay in all cases: Test D greenhouse paddy-water test in rice
Type in all cases: in vivo
Settings in all cases: 21 days, 0-100 scale
Ammania auriculata (Aa) = test system: Ammania auriculata (Aa)
From the text: (§1) Four plastic pots (ca. 16-cm diameter) per rate were partially filled with sterilized Tama silt loam soil comprised of a 35:50:15 ratio of sand, silt and clay and 2.6% organic matter. Separate plantings for each of the four pots were as follows. Seeds from the U.S. of Heteranthera limosa (Hl), Monochoria vaginalis (Mv), Ammania auriculata (Aa), and Sphenoclea zeylanica (Sz) were planted into one 16-cm pot for each rate. Seeds from the U.S. of Cyperus iria (Ci), Leptochloa fascicularis (Li), one stand of 9 or 10 direct-seeded rice seedlings (Oryza saliva cv. ‘Japonica—M202’; Oss), and one stand of 6 transplanted rice seedlings (Oryza sativa cv. ‘Japonica—M202’; Ost) were planted into one 16-cm pot for each rate. Seeds from the U.S. of Cyperus difformis (Cd), Alisma plantago-aquatica (Ap), and Scirpus mucronatus (Sm) were planted into one 16-cm pot for each rate. Seeds from the U.S. of Echinochloa crus-galli (Ecg), Echinochloa oryzicola (Eor), Echinochloa oryzoides (Eoz) and Echinochloa colonum (Ecc) were planted into one 16-cm pot for each rate. Plantings were sequential so that crop and weed species were at the 2.0 to 2.5-leaf stage at time of treatment.
(§2) Potted plants were grown in a greenhouse with day/night temperature settings of 29.5/26.7° C., and supplemental balanced lighting was provided to maintain a 16-hour photoperiod. Test pots were maintained in the greenhouse until test completion.
(§3) Chemical treatments consisting of Compound 1 of Index Table A (Cmpd 1), daimuron (Cmpd D), quinoclamine (Cmpd Q) and combinations thereof were formulated in acetone. At time of treatment, test pots were flooded to 3 cm above the soil surface, treated by application of test compounds directly to the paddy water, and then maintained at that water depth for the duration of the test. Effects of treatments on rice and weeds were visually evaluated by comparison to untreated controls after 21 days. Plant response ratings are reported on a 0 to 100 scale; where 0 is no effect and 100 is complete control. ND means no data.
(§4) Colby's equation was used to calculate the expected additive herbicidal effect of the mixtures of Compound 1 with daimuron (Cmpd D) and quinoclamine (Cmpd Q). Colby's equation (Colby, S. R “Calculating Synergistic and Antagonistic Responses of Herbicide Combinations,” Weeds, 15(1), pp 20–22 (1967)) calculates the expected additive effect of herbicidal mixtures, and for two active ingredients is of the form: Pa+b=Pa+Pb−(PaPb/100) wherein Pa+b is the percentage effect of the mixture expected from additive contribution of the individual components, • Pa is the observed percentage effect of the first active ingredient at the same use rate as in the mixture, and • Pb is the observed percentage effect of the second active ingredient at the same use rate as in the mixture.

[1] = test system: direct-seeded rice seedlings (Oryza saliva cv. 'Japonica—M202'; Oss)
From the text: as §1, §2, §3, §4

[2] = test system: Echinochloa colonum (Ecc)
From the text: as §1, §2, §3, §4

[3] = test system: transplanted rice seedlings (Oryza sativa cv. 'Japonica—M202'; Ost)
From the text: as §1, §2, §3, §4

[4] = test system: Echinochloa crus-galli (Ecg)
From the text: as §1, §2, §3, §4

Scirpus mucronatus (Sm) = test system: Scirpus mucronatus (Sm)
From the text: as §1, §2, §3, §4

[5] = test system: Echinochloa oryzoides (Eoz)
From the text: as §1, §2, §3, §4

Cyperus iria (Ci) = test system: Cyperus iria (Ci)
From the text: as §1, §2, §3, §4

[6] = test system: Alisma plantago-aquatica (Ap)
From the text: as §1, §2, §3, §4

`CC(C)(C)c1ccn(C2SCN(c3cccc(C(F)(F)F)c3)C2=O)n1` (stereo not drawn) [Compound 1] was tested, and the “Obs. (observed effect) Aa” value (Ammania auriculata (Aa); 32 g/ha alone) was 85, the “Obs. (observed effect) Aa” value (Ammania auriculata (Aa); 64 g/ha alone) was 95 and the “Obs. (observed effect) Aa” value (Ammania auriculata (Aa); 125 g/ha alone) was 100. The “Obs. (observed effect) Aa” value (Ammania auriculata (Aa); 250 g/ha alone) was 100, the “Obs. (observed effect) Aa” value (Ammania auriculata (Aa); 500 g/ha alone) was 100 and the “Obs. (observed effect) Oss” value ([1]; 32 g/ha alone) was 40. The “Obs. (observed effect) Oss” value ([1]; 64 g/ha alone) was 40, the “Obs. (observed effect) Oss” value ([1]; 125 g/ha alone) was 70 and the “Obs. (observed effect) Oss” value ([1]; 250 g/ha alone) was 100. The “Obs. (observed effect) Oss” value ([1]; 500 g/ha alone) was 100, the “Obs. (observed effect) Ecc” value ([2]; 32 g/ha alone) was 0 and the “Obs. (observed effect) Ecc” value ([2]; 64 g/ha alone) was 100. The “Obs. (observed effect) Ecc” value ([2]; 125 g/ha alone) was 100, the “Obs. (observed effect) Ecc” value ([2]; 250 g/ha alone) was 100 and the “Obs. (observed effect) Ecc” value ([2]; 500 g/ha alone) was 100. For the same molecule, the “Obs. (observed effect) Ost” value ([3]; 32 g/ha alone) was 15, the “Obs. (observed effect) Ost” value ([3]; 64 g/ha alone) was 0 and the “Obs. (observed effect) Ost” value ([3]; 125 g/ha alone) was 0. The “Obs. (observed effect) Ost” value ([3]; 250 g/ha alone) was 20, the “Obs. (observed effect) Ost” value ([3]; 500 g/ha alone) was 60 and the “Obs. (observed effect) Ecg” value ([4]; 32 g/ha alone) was 0. For the same molecule, the “Obs. (observed effect) Ecg” value ([4]; 64 g/ha alone) was 85, the “Obs. (observed effect) Ecg” value ([4]; 125 g/ha alone) was 100 and the “Obs. (observed effect) Ecg” value ([4]; 250 g/ha alone) was 100. For the same molecule, the “Obs. (observed effect) Ecg” value ([4]; 500 g/ha alone) was 100, the “Obs. (observed effect) Sm” value (Scirpus mucronatus (Sm); 32 g/ha alone) was 60 and the “Obs. (observed effect) Sm” value (Scirpus mucronatus (Sm); 64 g/ha alone) was 100. For the same molecule, the “Obs. (observed effect) Sm” value (Scirpus mucronatus (Sm); 125 g/ha alone) was 100, the “Obs. (observed effect) Sm” value (Scirpus mucronatus (Sm); 250 g/ha alone) was 100 and the “Obs. (observed effect) Sm” value (Scirpus mucronatus (Sm); 500 g/ha alone) was 100. For the same molecule, the “Obs. (observed effect) Eoz” value ([5]; 32 g/ha alone) was 20, the “Obs. (observed effect) Eoz” value ([5]; 64 g/ha alone) was 100 and the “Obs. (observed effect) Eoz” value ([5]; 125 g/ha alone) was 100. The “Obs. (observed effect) Eoz” value ([5]; 250 g/ha alone) was 100, the “Obs. (observed effect) Eoz” value ([5]; 500 g/ha alone) was 100 and the “Obs. (observed effect) Ci” value (Cyperus iria (Ci); 32 g/ha alone) was 95. The “Obs. (observed effect) Ci” value (Cyperus iria (Ci); 64 g/ha alone) was 100, the “Obs. (observed effect) Ci” value (Cyperus iria (Ci); 125 g/ha alone) was 100 and the “Obs. (observed effect) Ci” value (Cyperus iria (Ci); 250 g/ha alone) was 100. For the same molecule, the “Obs. (observed effect) Ci” value (Cyperus iria (Ci); 500 g/ha alone) was 100, the “Obs. (observed effect) Ap” value ([6]; 32 g/ha alone) was 100 and the “Obs. (observed effect) Ap” value ([6]; 64 g/ha alone) was 100. For the same molecule, the “Obs. (observed effect) Ap” value ([6]; 125 g/ha alone) was 100, the “Obs. (observed effect) Ap” value ([6]; 250 g/ha alone) was 100 and the “Obs. (observed effect) Ap” value ([6]; 500 g/ha alone) was 100.
